The source made the active and inactive calls.
Columns and labels:
[1] = Luminescence Cell-Based Dose Response HTS to Identify Inhibitors of 5'UTR Stem-Loop Driven Prion Protein mRNA Translation in H4 Neuroglioblastoma Cells. [Related pubchem assays: 1827 (Project Summary), 1813 (Primary HTS)]; format: functional
Keap1/Nrf2 = Keap1/Nrf2 (Homo sapiens, UniProt Q14145); test: disruptors of Keap1 binding to Nrf2 peptide – biochemical, fluorescence polarization, cherry-picked samples, dose response (AID 588683)
[2] = decrease of insulin promoter-GFP reporter – imaging, high-content screening, mouse beta cells (AID 1628); format: functional; conditions: MIN6
[3] = MIN6 cell viability loss – mouse insulinoma, cytotoxicity control, dose response (AID 2122); format: functional;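 further: confirmatory high-throughput counterscreen run to flag cytotoxic compounds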
[4] = mitochondrial function rescue without frataxin homolog – Friedreich's ataxia, plus single-dose screen, dose response (AID 1465); format: functional;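 further: yeast depleted of Yfh1p frataxin homolog grown on glycerol needing respiration; WST-1 tetrazolium dye reduction as measure of cellular dehydrogenase metabolic activity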
Beta-galactosidase = Beta-galactosidase (Escherichia coli, UniProt Q8VNN2); format: functional
[5] = reduction of Shn3 3'UTR-driven luciferase in osteoblasts – cell-based, Clone20 osteoblasts, firefly luciferase, cherry-picked, dose response (AID 624132); format: functional;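 further: firefly luciferase luminescence from reporter carrying the Shn3 3'UTR in osteoblasts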
SUMO-activating enzyme = SUMO-activating enzyme (Homo sapiens, UniProt Q9UBT2); test: blockers of UBC9-mediated SUMO conjugation – biochemical, AlphaScreen, SUMOylation inhibitor project, confirmation (AID 2018); format: functional
SUMO E1/E2 = SUMO E1/E2 (Homo sapiens, UniProt P63279+Q9UBE0+Q9UBT2); test: SAR analysis of SUMOylation using HTRF in an in-Vitro dose response assay. [Related pubchem assays (depositor defined):AID2006, AID2011, AID2018, AID2069, AID2658]; format: functional
[6] = microbe, parasite or virus in culture; format: functional; conditions: Mycobacterium tuberculosis
[7] = molecular target: 1-acylglycerol-3-phosphate O-acyltransferase ABHD5/Perilipin-5 (Homo sapiens, UniProt Q00G26+Q8WTS1); test: Luminescence-based biochemical high throughput dose response assay for inhibitors of the interaction of the lipase co-activator protein, abhydrolase domain containing 5 (ABHD5) with perilipin-5 (MLDP; PLIN5) (2K validation set). [Related pubchem assays (depositor defined):AID493035, AID493241]
[8] = molecular target: Protein-arginine deiminase type-4 (Homo sapiens, UniProt Q9UM07); test: IC50 against protein arginine deiminase 4 – biochemical, fluorescence readout, dose response (AID 492970)
Cysteine protease ATG4B = molecular target: T1, Cysteine protease ATG4B (Homo sapiens, UniProt Q9Y4P1); format: functional;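 further: Fluorescence-based dose-response confirmation assay measuring inhibition of ATG4B activity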
T1 sequence (Q9Y4P1 whole entry): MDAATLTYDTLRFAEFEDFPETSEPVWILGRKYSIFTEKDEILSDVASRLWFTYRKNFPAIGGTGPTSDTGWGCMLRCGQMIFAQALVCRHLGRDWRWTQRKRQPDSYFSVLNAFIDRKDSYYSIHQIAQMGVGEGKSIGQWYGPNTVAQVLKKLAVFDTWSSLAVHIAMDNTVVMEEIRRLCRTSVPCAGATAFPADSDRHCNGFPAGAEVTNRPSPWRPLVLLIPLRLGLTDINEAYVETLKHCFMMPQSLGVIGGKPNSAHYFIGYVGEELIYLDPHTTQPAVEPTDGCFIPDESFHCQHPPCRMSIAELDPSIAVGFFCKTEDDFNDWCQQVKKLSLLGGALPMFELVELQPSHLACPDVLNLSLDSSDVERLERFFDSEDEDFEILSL

[9] = molecular target: 1-phosphatidylinositol 4,5-bisphosphate phosphodiesterase beta-3 (Homo sapiens, UniProt Q01970); test: Fluorescence-based biochemical high throughput dose response assay to identify inhibitors of phospholipase C isozymes (PLC-B3).
1-phosphatidylinositol 4,5-bisphosphate phosphodiesterase beta-3, sequence (Q01970 whole entry): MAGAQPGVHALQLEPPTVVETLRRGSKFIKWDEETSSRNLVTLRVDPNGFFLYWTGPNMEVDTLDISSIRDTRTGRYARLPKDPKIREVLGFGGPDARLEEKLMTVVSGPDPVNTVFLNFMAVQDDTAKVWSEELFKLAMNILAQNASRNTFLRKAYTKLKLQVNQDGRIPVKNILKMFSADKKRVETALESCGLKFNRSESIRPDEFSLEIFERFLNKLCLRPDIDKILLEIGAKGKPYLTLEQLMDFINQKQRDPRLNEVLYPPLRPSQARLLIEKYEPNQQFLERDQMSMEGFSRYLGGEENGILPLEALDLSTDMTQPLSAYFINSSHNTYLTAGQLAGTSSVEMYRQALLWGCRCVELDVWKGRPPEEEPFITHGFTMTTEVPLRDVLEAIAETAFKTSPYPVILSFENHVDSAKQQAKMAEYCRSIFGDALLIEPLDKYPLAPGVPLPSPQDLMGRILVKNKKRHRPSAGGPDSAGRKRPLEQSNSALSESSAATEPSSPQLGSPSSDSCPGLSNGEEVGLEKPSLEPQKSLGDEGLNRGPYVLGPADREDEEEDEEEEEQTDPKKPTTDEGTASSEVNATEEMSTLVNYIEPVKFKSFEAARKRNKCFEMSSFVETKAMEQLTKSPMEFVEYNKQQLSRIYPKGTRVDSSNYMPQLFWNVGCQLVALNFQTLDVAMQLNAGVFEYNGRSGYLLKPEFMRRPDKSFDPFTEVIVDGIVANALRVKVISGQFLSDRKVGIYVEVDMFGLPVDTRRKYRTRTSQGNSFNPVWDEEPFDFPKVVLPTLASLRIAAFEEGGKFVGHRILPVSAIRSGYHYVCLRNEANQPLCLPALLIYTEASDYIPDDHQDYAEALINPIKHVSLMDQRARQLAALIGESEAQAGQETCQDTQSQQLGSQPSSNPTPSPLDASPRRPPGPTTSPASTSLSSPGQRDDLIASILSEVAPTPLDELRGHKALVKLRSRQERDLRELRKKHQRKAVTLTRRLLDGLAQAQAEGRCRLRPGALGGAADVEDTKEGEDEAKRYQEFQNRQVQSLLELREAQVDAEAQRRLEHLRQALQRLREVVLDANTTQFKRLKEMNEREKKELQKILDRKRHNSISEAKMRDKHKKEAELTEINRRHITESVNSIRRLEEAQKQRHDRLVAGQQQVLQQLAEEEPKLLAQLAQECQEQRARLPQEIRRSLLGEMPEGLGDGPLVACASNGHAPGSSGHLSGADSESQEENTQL

1-acylglycerol-3-phosphate O-acyltransferase ABHD5/Perilipin-5, sequence (Q00G26 whole entry, the tested form may be a part): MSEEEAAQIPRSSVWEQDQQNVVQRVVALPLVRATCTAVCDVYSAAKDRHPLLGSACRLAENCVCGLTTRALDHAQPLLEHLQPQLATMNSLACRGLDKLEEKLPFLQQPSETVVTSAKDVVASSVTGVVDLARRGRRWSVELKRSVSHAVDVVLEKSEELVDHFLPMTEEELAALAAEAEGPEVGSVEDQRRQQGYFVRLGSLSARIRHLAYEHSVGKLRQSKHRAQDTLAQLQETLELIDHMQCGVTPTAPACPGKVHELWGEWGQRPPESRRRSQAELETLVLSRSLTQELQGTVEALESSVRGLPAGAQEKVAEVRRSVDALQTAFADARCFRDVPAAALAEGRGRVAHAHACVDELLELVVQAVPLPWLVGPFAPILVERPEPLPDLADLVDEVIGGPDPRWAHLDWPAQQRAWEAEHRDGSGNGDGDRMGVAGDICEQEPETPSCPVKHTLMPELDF
1-acylglycerol-3-phosphate O-acyltransferase ABHD5/Perilipin-5, sequence (Q8WTS1 whole entry, the tested form may be a part): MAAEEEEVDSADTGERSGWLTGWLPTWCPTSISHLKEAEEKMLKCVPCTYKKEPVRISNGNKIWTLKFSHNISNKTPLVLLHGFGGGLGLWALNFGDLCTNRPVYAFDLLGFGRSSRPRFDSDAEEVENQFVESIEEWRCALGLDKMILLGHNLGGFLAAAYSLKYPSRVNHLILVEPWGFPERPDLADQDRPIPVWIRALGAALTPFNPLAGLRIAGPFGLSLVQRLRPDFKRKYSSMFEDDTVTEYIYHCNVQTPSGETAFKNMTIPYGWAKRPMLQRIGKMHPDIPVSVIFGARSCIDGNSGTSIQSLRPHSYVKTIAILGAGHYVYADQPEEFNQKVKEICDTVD
Keap1/Nrf2, sequence (Q16236 whole entry): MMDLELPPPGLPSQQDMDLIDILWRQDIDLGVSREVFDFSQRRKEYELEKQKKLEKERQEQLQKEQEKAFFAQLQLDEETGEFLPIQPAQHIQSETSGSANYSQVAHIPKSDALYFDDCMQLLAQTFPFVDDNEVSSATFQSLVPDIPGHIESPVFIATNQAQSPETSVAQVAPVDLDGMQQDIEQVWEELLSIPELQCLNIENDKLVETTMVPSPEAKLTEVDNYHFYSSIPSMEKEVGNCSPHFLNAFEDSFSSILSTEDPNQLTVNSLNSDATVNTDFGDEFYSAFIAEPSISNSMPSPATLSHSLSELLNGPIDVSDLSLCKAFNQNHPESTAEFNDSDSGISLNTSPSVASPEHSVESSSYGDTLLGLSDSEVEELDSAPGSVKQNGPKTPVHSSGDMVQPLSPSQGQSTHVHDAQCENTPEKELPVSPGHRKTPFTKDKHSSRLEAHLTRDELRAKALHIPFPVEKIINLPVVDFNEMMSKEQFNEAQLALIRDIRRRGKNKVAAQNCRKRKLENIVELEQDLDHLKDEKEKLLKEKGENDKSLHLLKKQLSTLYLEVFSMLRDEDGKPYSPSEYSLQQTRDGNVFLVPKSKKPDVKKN
Keap1/Nrf2, sequence (Q14145 whole entry): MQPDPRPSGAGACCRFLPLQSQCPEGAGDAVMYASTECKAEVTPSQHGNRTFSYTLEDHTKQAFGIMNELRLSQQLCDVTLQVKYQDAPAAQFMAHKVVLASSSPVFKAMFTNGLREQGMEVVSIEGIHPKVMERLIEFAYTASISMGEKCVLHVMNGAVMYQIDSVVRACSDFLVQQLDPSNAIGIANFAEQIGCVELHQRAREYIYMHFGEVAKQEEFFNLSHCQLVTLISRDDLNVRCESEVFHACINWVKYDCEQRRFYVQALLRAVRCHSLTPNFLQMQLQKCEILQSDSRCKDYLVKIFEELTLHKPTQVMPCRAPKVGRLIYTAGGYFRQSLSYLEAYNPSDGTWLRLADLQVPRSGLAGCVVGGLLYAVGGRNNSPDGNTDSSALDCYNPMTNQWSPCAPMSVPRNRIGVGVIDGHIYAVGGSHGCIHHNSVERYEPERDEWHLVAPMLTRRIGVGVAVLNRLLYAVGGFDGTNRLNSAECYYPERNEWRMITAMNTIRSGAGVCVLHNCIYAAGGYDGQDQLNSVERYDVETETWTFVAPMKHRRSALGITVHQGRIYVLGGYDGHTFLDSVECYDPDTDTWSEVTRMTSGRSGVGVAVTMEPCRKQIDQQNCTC
Beta-galactosidase, sequence (Q8VNN2 whole entry): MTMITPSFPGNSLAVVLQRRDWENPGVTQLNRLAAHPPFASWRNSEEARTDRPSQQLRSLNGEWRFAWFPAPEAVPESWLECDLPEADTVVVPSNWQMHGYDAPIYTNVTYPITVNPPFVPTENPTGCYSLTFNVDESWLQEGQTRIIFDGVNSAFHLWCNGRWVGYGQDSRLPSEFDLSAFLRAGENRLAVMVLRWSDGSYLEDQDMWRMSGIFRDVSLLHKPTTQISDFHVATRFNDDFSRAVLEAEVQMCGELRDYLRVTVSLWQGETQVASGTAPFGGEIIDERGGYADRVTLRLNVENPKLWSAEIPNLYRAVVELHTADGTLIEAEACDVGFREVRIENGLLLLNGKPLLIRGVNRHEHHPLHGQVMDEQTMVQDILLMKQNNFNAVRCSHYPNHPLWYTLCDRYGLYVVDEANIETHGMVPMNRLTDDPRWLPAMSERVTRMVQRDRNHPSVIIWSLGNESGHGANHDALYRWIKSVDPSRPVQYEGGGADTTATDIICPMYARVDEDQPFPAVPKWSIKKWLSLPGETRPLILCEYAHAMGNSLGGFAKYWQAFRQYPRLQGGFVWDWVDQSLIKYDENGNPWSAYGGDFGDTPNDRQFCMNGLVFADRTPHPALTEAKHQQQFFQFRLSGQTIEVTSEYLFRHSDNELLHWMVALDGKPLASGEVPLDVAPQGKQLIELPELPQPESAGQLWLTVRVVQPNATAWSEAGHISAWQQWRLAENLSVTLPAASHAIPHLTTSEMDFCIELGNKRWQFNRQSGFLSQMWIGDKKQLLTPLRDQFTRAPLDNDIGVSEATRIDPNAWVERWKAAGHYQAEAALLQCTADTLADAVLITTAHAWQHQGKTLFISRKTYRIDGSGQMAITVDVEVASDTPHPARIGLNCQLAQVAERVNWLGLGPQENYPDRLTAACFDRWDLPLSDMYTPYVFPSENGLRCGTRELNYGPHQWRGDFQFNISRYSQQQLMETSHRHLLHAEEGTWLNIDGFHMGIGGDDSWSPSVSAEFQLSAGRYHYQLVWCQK
Protein-arginine deiminase type-4, sequence (Q9UM07 whole entry): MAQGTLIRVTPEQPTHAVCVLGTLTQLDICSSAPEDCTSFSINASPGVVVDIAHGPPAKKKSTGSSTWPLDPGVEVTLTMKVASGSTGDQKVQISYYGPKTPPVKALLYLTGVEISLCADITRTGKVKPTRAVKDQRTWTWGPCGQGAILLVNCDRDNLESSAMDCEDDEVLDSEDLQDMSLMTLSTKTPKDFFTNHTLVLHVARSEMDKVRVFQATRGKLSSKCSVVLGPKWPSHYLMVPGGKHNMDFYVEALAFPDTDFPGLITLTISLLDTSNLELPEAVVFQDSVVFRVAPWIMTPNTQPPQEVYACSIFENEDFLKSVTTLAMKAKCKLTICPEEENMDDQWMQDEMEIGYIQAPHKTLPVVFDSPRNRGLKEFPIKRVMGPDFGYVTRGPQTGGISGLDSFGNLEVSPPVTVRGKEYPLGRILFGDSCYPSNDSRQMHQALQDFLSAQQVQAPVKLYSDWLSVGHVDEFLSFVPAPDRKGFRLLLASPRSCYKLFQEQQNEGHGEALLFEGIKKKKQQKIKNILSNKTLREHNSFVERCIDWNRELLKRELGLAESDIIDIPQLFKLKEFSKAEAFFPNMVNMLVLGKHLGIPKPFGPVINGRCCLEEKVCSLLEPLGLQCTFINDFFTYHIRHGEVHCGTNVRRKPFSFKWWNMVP

With `O=C1c2cc(F)ccc2-n2c1nc1ccccc1c2=O` the EC50 [1] was > 120 µM (not active).

With `COCCCNC(=O)c1ccc2c3c(onc13)-c1ccccc1C2=O` the AC50 (Keap1/Nrf2) was 1.73 µM (active).

For `O=C1C=C(N(CCO)Cc2ccccc2)c2ccccc2C1=O`, the IC50 [2] was 5.11 µM (active), the IC50 [3] was 3.71 µM (active) and the EC50 [4] was > 100 µM (active).

With `CCC(=O)OCCNc1cc(Sc2nccn2C)c2nonc2c1[N+](=O)[O-]` the EC50 (Beta-galactosidase) was > 31.5 µM (inactive) and the AC50 [5] was 1.55 µM (active).

In the case of `CCCCn1c(NC(=O)c2ccccc2Cl)c(C#N)c2nc3ccccc3nc21`, the IC50 (SUMO-activating enzyme) was 0.89 µM (active) and the IC50 (SUMO E1/E2) was 10.9 µM (active).

In the case of `O=C1C(=O)c2ccccc2-c2ccccc21` [9,10-PHENANTHRENEQUINONE], the CC50 [6] was 2.33 µM (active), the IC50 [7] was 6.44 µM (active) and the IC50 [8] was 16 µM (inactive). For the same molecule, the IC50 (Cysteine protease ATG4B) was 1.25 µM (active) and the IC50 [9] was > 122 µM (inactive).

Reference: ChEMBL document CHEMBL1201862, “PubChem BioAssay data set” (2004)
